Data from patent US6277854A, “Tricyclic antitumor farnesyl protein transferase inhibitors” (Schering Corporation, priority 1999, dated 2001).

The compounds below were run against farnesyl protein transferase (assay: In vitro enzyme assay: inhibition of farnesyl protein transferase (FPT), [3H]farnesyl transfer to Ras-CVLS). Settings: not given.
Type: biochemical, rat (brain); human (expressed in E. coli)
Text: 1. In vitro enzyme assays: Inhibition of famesyl protein transferase and geranylgeranyl protein transferase.
Farnesyl protein transferase (FPT) was partially purified from rat brain by ammonium sulfate fractionation followed by Q-Sepharose (Pharmacia, Inc.) anion exchange chromatography essentially as described by Yokoyama et al (Yokoyama, K., et al., (1991), A protein geranylgeranyltransferase from bovine brain: Implications for protein prenylation specificity, Proc. Natl. Acad. Sci USA 88: 5302-5306, the disclosure of which is incorporated herein by reference thereto). Human famesyl protein transferase was also expressed in E. coli, using cDNA clones encoding both the a and b subunits. The methods used were similar to those published (Omer, C. et al., (1993), Characterization of recombinant human famesyl protein transferase: Cloning, expression, farnesyl diphosphate binding, and functional homology with yeast prenyl-protein transferases, Biochemistry 32:5167-5176). Human famesyl protein transferase was partially-purified from the soluble protein fraction of E. coli as described above. […] Two forms of val^12 -Ha-Ras protein were prepared as substrates for these enzymes, differing in their carboxy terminal sequence. One form terminated in cysteine-valine-leucine-serine (Ras-CVLS) the other in cystein-valine-leucine-leucine (Ras-CVLL). Ras-CVLS is a substrate for the famesyl protein transferase while Ras-CVLL is a substrate for geranylgeranyl protein transferase I. The cDNAs encoding these proteins were constructed so that the proteins contain an amino-terminal extension of 6 histidine residues. Both proteins were expressed in Escherichia coli and purified using metal chelate affinity chromatography. The radiolabelled isoprenyl pyrophosphate substrates, [^3 H]farnesyl pyrophosphate and [^3 H]geranylgeranyl pyrophosphate, were purchased from DuPon/New England Nuclear.
Several methods for measuring farnesyl protein transferase activity have been described (Reiss et al 1990, Cell 62: 81; Schaber et al 1990, J. Biol. Chem. 265: 14701; Manne et al 1990, PNAS 87: 7541; and Barbacid & Manne 1993, U.S. Pat. No. 5,185,248). […] The reaction was allowed to proceed for 30 minutes at room temperature and then stopped with 0.5 ml of 4% sodium dodecyl sulfate (SDS) followed by 0.5 ml of cold 30% TCA. Samples were allowed to sit on ice for 45 minutes and precipitated Ras protein was then collected on GF/C filter paper mats using a Brandel cell harvester. Filter mats were washed once with 6% TCA, 2% SDS and radioactivity was measured in a Wallac 1204 Betaplate BS liquid scintillation counter. Percent inhibition was calculated relative to the DMSO vehicle control.

Row | IC50 | Compound
1 | 6 nM | O=C(CCN1CCCCC1)N1CCC(C2c3ncc(Br)cc3CCc3cc(Cl)cc(Cl)c32)CC1 (single isomer, unassigned) [Example 9]
2 | 380 nM | CN(C)CC(=O)N1CCC(C2c3ncc(Br)cc3CCc3cc(Cl)cc(Cl)c32)CC1 (single isomer, unassigned) [Example 4]
3 | 16 nM | O=C(CCC(=O)N1CCC(C2c3ncc(Br)cc3CCc3cc(Cl)cc(Cl)c32)CC1)N1CCCC1 (single isomer, unassigned) [Example 14]
4 | ~100 nM | O=C(CCCC(=O)N1CCC(C2c3ncc(Br)cc3CCc3cc(Cl)cc(Cl)c32)CC1)Nc1cccnc1 (stereo not shown) [Example 17]
5 | 28 nM | CCOC(=O)CC(=O)N1CCC([C@H]2c3ncc(Br)cc3CCc3cc(Cl)cc(Br)c32)CC1 [Example 45, (+)-ETHYL 4-(3,10-DIBROMO-8-CHLORO-6,11-DIHYDRO-5H-BENZO[5,6]CYCLO-HEPTA[1,2-b]PYRIDIN-11(R)-YL)-BETA-OXO-1-PIPERIDININE PROPANOATE]
6 | 15 nM | COC(=O)CCCCC(=O)N1CCC([C@H]2c3ncc(Br)cc3CCc3cc(Cl)cc(Br)c32)CC1 [Example 54, (+)-METHYL 4-(3,10-DIBROMO-8-CHLORO-6,11-DIHYDRO-5H-BENZO[5,6]CYCLO-HEPTA[1,2-b]PYRIDIN-11(R)-YL)-EPSILON-OXO-1-PIPERIDININE HEXANOATE]
7 | 19 nM | COC(=O)CCCC(=O)N1CCC([C@H]2c3ncc(Br)cc3CCc3cc(Cl)cc(Br)c32)CC1 [Example 51, (+)-METHYL 4-(3,10-DIBROMO-8-CHLORO-6,11-DIHYDRO-5H-BENZO[5,6]CYCLO-HEPTA[1,2-b]PYRIDIN-11 (R)-YL)-DELTA-OXO-1-PIPERIDININE PENTANOATE]
8 | 61 nM | NC(=O)CCC(=O)N1CCC(C2c3ncc(Br)cc3CCc3cc(Cl)cc(Cl)c32)CC1 (single isomer, unassigned) [Example 12]
9 | 44 nM | O=C(O)CCCC(=O)N1CCC([C@H]2c3ncc(Br)cc3CCc3cc(Cl)cc(Br)c32)CC1 [Example 52, (+)-SODIUM 4-(3,10-DIBROMO-8-CHLORO-6,11-DIHYDRO-5H-BENZO[5,6]CYCLO-HEPTA[1,2-b]PYRIDIN-11(R)-YL)-DELTA-OXO-1-PIPERIDININE PENTANOATE]
10 | 78 nM | O=C(O)CC(=O)N1CCC([C@H]2c3ncc(Br)cc3CCc3cc(Cl)cc(Br)c32)CC1 [Example 46, (+)-SODIUM 4-(3,10-DIBROMO-8-CHLORO-6,11-DIHYDRO-5H-BENZO[5,6]CYCLO-HEPTA[1,2-b]PYRIDIN-11(R)-YL)-BETA-OXO-1-PIPERIDININE PROPANOATE]
11 | 14 nM | CCN(CC)CCC(=O)N1CCC(C2c3ncc(Br)cc3CCc3cc(Cl)cc(Cl)c32)CC1 (single isomer, unassigned) [Example 8]
12 | 56 nM | CN(C)CCC(=O)N1CCC(C2c3ncc(Br)cc3CCc3cc(Cl)cc(Cl)c32)CC1 (single isomer, unassigned) [Example 5]
13 | > 100 nM | O=C(NCCCC(=O)N1CCC(C2c3ncc(Br)cc3CCc3cc(Cl)cc(Cl)c32)CC1)Nc1ccccc1 (single isomer, unassigned) [Example 16]
14 | 11 nM | COC(=O)CCCCCC(=O)N1CCC([C@H]2c3ncc(Br)cc3CCc3cc(Cl)cc(Br)c32)CC1 [Example 57, (+)-METHYL 4-(3,10-DIBROMO-8-CHLORO-6,11-DIHYDRO-5H-BENZO[5,6]CYCLO-HEPTA[1,2-b]PYRIDIN-11(R)-YL)-OMEGA-OXO-1-PIPERIDININE HEPTANOATE]
15 | 63 nM | CC(=O)NCCCC(=O)N1CCC(C2c3ncc(Br)cc3CCc3cc(Cl)cc(Cl)c32)CC1 (single isomer, unassigned) [Example 15]
16 | 19 nM | O=C(CN1CCCC1=O)N1CCC(C2c3ncc(Br)cc3CCc3cc(Cl)cc(Cl)c32)CC1 (single isomer, unassigned) [Example 10]
17 | 22 nM | CN(C)CCCCC(=O)N1CCC(C2c3ncc(Br)cc3CCc3cc(Cl)cc(Cl)c32)CC1 (single isomer, unassigned) [Example 7]
18 | 620 nM | O=C(CCCCCN1C(=O)C=CC1=O)N1CCC(C2c3ncc(Br)cc3CCc3cc(Cl)cc(Cl)c32)CC1 (single isomer, unassigned) [Example 23]
19 | 270 nM | O=C(O)CCC(=O)N1CCC([C@H]2c3ncc(Br)cc3CCc3cc(Cl)cc(Br)c32)CC1 [Example 49, (+)-SODIUM 4-(3,10-DIBROMO-B-CHLORO-6,11-DIHYDRO-5H-BENZO[5,6]CYCLO-HEPTA[1,2-b]PYRIDIN-11(R)-YL)-GAMMA-OXO-1-PIPERIDININE BUTANOATE]
20 | 15 nM | CN(C)C(=O)CCC(=O)N1CCC(C2c3ncc(Br)cc3CCc3cc(Cl)cc(Cl)c32)CC1 (single isomer, unassigned) [Example 13]
21 | 76 nM | O=C(CCN1C(=O)CCC1=O)N1CCC(C2c3ncc(Br)cc3CCc3cc(Cl)cc(Cl)c32)CC1 (single isomer, unassigned) [Example 11]
22 | 9 nM | COC(=O)CCC(=O)N1CCC([C@H]2c3ncc(Br)cc3CCc3cc(Cl)cc(Br)c32)CC1 [Example 48, (+)-METHYL 4-(3,10-DIBROMO-8-CHLORO-6,11-DIHYDRO-5H-BENZO[5,6]CYCLO-HEPTA[1,2-b]PYRIDIN-11(R)-YL)-GAMMA-OXO -1-PIPERIDININE BUTANOATE]
23 | 58 nM | NC(=O)NCCCC(=O)N1CCC(C2c3ncc(Br)cc3CCc3cc(Cl)cc(Cl)c32)CC1 (single isomer, unassigned; (+)) [Example 31]

Row | Compound | IC50
24 | NCCCC(=O)N1CCC(C2c3ncc(Br)cc3CCc3cc(Cl)cc(Cl)c32)CC1 (single isomer, unassigned; (+)) [Example 27, (+)-1-(4-AMINO-1-OXOBUTYL)-4-(3-BROMO-8,10-DICHLORO-6,11-DIHYDRO-5H-BENZO[5,6]CYCLO-HEPTA[1,2-b]PYRIDIN-11-YL) PIPERIDINE] | 130 nM
25 | NCC(=O)N1CCC(C2c3ncc(Br)cc3CCc3cc(Cl)cc(Cl)c32)CC1 (single isomer, unassigned; (+)) [Example 3, (+)-1-(AMINOACETYL)-4-(3-BROMO-8,10-DICHLORO-6,11-DIHYDRO-5H-BENZO[5,6]CYCLO-HEPTA[1,2-b]PYRIDIN-11-YL) PIPERIDINE] | 1100 nM
26 | CN(C)CCCC(=O)N1CCC(C2c3ncc(Br)cc3CCc3cc(Cl)cc(Br)c32)CC1 (single isomer, unassigned; (+)) [Example 2, (+)-4-(3,10-DIBROMO-8-CHLORO-6,11-DIHYDRO-5H-BENZO[5,6]-CYCLO-HEPTA[1,2-b]PYRIDIN-11-YL)-1-[4-(DIMETHYLAMINO)-1-OXOBUTYL]PIPERIDINE] | 4 nM

Same assay, conditions: @ 0.06 μg/μL

Row | FPT inhibition | Compound
27 | 35% | O=C(CCCC(=O)N1CCC(C2c3ncc(Br)cc3CCc3cc(Cl)cc(Cl)c32)CC1)NCc1ccccc1 (single isomer, unassigned) [Example 21]
28 | 21% | O=C(CCCC(=O)N1CCC(C2c3ncc(Br)cc3CCc3cc(Cl)cc(Cl)c32)CC1)Nc1ccccc1 (single isomer, unassigned) [Example 19]
29 | 20% | O=C(NCCCC(=O)N1CCC(C2c3ncc(Br)cc3CCc3cc(Cl)cc(Cl)c32)CC1)c1ccncc1 (single isomer, unassigned) [Example 24]

Same assay, conditions: @ 88 nM

Row | Compound | FPT inhibition
30 | O=C(CCCN1C(=O)c2ccccc2C1=O)N1CCC(C2c3ncc(Br)cc3CCc3cc(Cl)cc(Br)c32)CC1 (single isomer, unassigned; (+)) [Example 32, (+)-4-(3,10-DIBROMO-8-CHLORO-6,11-DIHYDRO-5H-BENZO[5,6]CYCLO-HEPTA[1,2-b]PYRIDIN-11-YL)-1-[4-(1,3-DIHYDRO-1,3-DIOXO-2H-ISOINDOL-2-YL)-1-OXOBUTYL]PIPERIDINE] | 12%

Same assay, conditions: @ 92 nM

Row | FPT inhibition | Compound
31 | 0% | O=C(CCCC(=O)N1CCC(C2c3ncc(Br)cc3CCc3cc(Cl)cc(Cl)c32)CC1)Nc1ccc(Cl)cc1 (single isomer, unassigned) [Example 20]

Same assay, conditions: @ 93 nM

Row | FPT inhibition | Compound
32 | 9% | O=C(NCCCC(=O)N1CCC(C2c3ncc(Br)cc3CCc3cc(Cl)cc(Cl)c32)CC1)c1cccnc1 (single isomer, unassigned) [Example 18]

Same assay, conditions: @ 93.4 nM

Row | Compound | FPT inhibition
33 | O=C(CCCN1C(=O)c2ccncc2C1=O)N1CCC(C2c3ncc(Br)cc3CCc3cc(Cl)cc(Cl)c32)CC1 (stereo not shown) [Example 33, 4-(8,10-DICHLORO-3-BROMO-6,11-DIHYDRO-5H-BENZO[5,6]CYCLO-HEPTA[1,2-b]PYRIDIN-11-YL)-1-[4-(1,3-DIHYDRO-1,3-DIOXO-2H-PYRROLO-[3,4c]-PYRIDINE-2-YL)-1-OXOBUTYL]PIPERIDINE] | 38.7%

Same assay, conditions: @ 330 nM

Row | FPT inhibition | Compound
34 | 47% | CC(C)(C)OC(=O)NCCCC(=O)N1CCC(C2c3ncc(Br)cc3CCc3cc(Cl)cc(Cl)c32)CC1 (stereo not shown) [Example 25]
